Results from ChEMBL document CHEMBL1201862, “PubChem BioAssay data set” (2004).
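1) Cells in 96-well plates. 2) Compound, 48 h, 5 concentrations. 3) Linear interpolation between surrounding doses. 4) Unreached endpoint = highest concentration. The concentration for 50% growth inhibition is given as GI50.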 Activity calls are given as the source filed them. Cut-off read from the data, not from the text of the source: active = GI50 up to about 1.1 µM and inactive = higher.

Key:
Assay in all cases: inhibition of tumour cell growth, NCI panel, 48 h
786-0 = test system: 786-0
A498 = test system: A498
A549 = test system: A549
ACHN = test system: ACHN
BT-549 = test system: BT-549
CAKI-1 = test system: CAKI-1
CCRF-CEM = test system: CCRF-CEM
COLO 205 = test system: COLO 205
DU-145 = test system: DU-145
EKVX = test system: EKVX
HCC 2998 = test system: HCC 2998
HCT-116 = test system: HCT-116
HCT-15 = test system: HCT-15
HL-60 = test system: HL-60
HOP-62 = test system: HOP-62
HOP-92 = test system: HOP-92
HT-29 = test system: HT-29
Hs-578T = test system: Hs-578T
IGROV-1 = test system: IGROV-1
KM12 = test system: KM12
M14 = test system: M14
MCF7 = test system: MCF7
MDA-MB-231 = test system: MDA-MB-231
MDA-MB-435 = test system: MDA-MB-435
MDA-N = test system: MDA-N
MOLT-4 = test system: MOLT-4
Malme-3M = test system: Malme-3M
NCI-H226 = test system: NCI-H226
NCI-H23 = test system: NCI-H23
NCI-H460 = test system: NCI-H460
NCI-H522 = test system: NCI-H522
NCI/ADR-RES = test system: NCI/ADR-RES
OVCAR-3 = test system: OVCAR-3
OVCAR-4 = test system: OVCAR-4
OVCAR-5 = test system: OVCAR-5
OVCAR-8 = test system: OVCAR-8
PC-3 = test system: PC-3
RPMI-8226 = test system: RPMI-8226
RXF 393 = test system: RXF 393
SF-268 = test system: SF-268
SF-295 = test system: SF-295
SF-539 = test system: SF-539
SK-MEL-28 = test system: SK-MEL-28
SK-MEL-2 = test system: SK-MEL-2
SK-MEL-5 = test system: SK-MEL-5
SK-OV-3 = test system: SK-OV-3
SN12C = test system: SN12C
SNB-19 = test system: SNB-19
SNB-75 = test system: SNB-75
SW-620 = test system: SW-620
T47D = test system: T47D
TK-10 = test system: TK-10
U-251 = test system: U-251
UACC-257 = test system: UACC-257
UACC-62 = test system: UACC-62
UO-31 = test system: UO-31
K562 = test system: K562
LOX IMVI = test system: LOX IMVI

In the case of `COc1cc2c(cc1OC)C1C(O)C(OC)C(Br)C3(Br)CCN(C2)C13` (stereo not given), the GI50 (786-0) is reported as > 100 µM (inactive), the GI50 (A498) is reported as > 100 µM (inactive) and the GI50 (A549) is reported as > 100 µM (inactive). The GI50 (ACHN) was > 100 µM (inactive), the GI50 (BT-549) was > 100 µM (inactive) and the GI50 (CAKI-1) was > 100 µM (inactive). The GI50 (CCRF-CEM) was > 100 µM (inactive), the GI50 (COLO 205) was > 100 µM (inactive) and the GI50 (DU-145) was > 100 µM (inactive). The GI50 (EKVX) was > 100 µM (inactive), the GI50 (HCC 2998) was 70.3 µM (inactive) and the GI50 (HCT-116) was > 100 µM (inactive). The GI50 (HCT-15) was over 100 µM, the GI50 (HL-60) was > 100 µM (inactive) and the GI50 (HOP-62) was > 100 µM (inactive). For the same molecule, the GI50 (HOP-92) was 15.1 µM (inactive), the GI50 (HT-29) was > 100 µM (inactive) and the GI50 (Hs-578T) was > 100 µM (inactive). For the same molecule, the GI50 (IGROV-1) was > 100 µM (inactive), the GI50 (KM12) was 94.8 µM (inactive) and the GI50 (M14) was > 100 µM (inactive). For the same molecule, the GI50 (MCF7) was > 100 µM (inactive), the GI50 (MDA-MB-231) was > 100 µM (inactive) and the GI50 (MDA-MB-435) was > 100 µM (inactive). The GI50 (MDA-N) was > 100 µM (inactive), the GI50 (MOLT-4) was 54 µM (inactive) and the GI50 (Malme-3M) was 42.6 µM (inactive). For the same molecule, the GI50 (NCI-H226) was > 100 µM (inactive), the GI50 (NCI-H23) was > 100 µM (inactive) and the GI50 (NCI-H460) was 56.6 µM (inactive). The GI50 (NCI-H522) was 50.8 µM (inactive), the GI50 (NCI/ADR-RES) was > 100 µM (inactive) and the GI50 (OVCAR-3) was > 100 µM (inactive). For the same molecule, the GI50 (OVCAR-4) was > 100 µM (inactive), the GI50 (OVCAR-5) was > 100 µM (inactive) and the GI50 (OVCAR-8) was 41.3 µM (inactive). For the same molecule, the GI50 (PC-3) was > 100 µM (inactive), the GI50 (RPMI-8226) was > 100 µM (inactive) and the GI50 (RXF 393) was 18.5 µM (inactive). For the same molecule, the GI50 (SF-268) was 9.04 µM (inactive), the GI50 (SF-295) was > 100 µM (inactive) and the GI50 (SF-539) was > 100 µM (inactive). The GI50 (SK-MEL-28) was > 100 µM (inactive), the GI50 (SK-MEL-2) was > 100 µM (inactive) and the GI50 (SK-MEL-5) was > 100 µM (inactive). For the same molecule, the GI50 (SK-OV-3) was > 100 µM (inactive), the GI50 (SN12C) was > 100 µM (inactive) and the GI50 (SNB-19) was 46.2 µM (inactive). The GI50 (SNB-75) was 78.9 µM (inactive), the GI50 (SW-620) was > 100 µM (inactive) and the GI50 (T47D) was 84.1 µM (inactive). The GI50 (TK-10) was > 100 µM (inactive), the GI50 (U-251) was 47.1 µM (inactive) and the GI50 (UACC-257) was > 100 µM (inactive). For the same molecule, the GI50 (UACC-62) was > 100 µM (inactive) and the GI50 (UO-31) was > 100 µM (inactive).
For `Nc1ccccc1NC(=O)c1ccc(CNC(=O)OCc2cccnc2)cc1` [ENTINOSTAT], the GI50 (786-0) was 3.35 µM (inactive), the GI50 (A498) was 0.429 µM (active) and the GI50 (A549) was 3 µM (inactive). For the same molecule, the GI50 (ACHN) was 1.88 µM (inactive), the GI50 (BT-549) was 3.5 µM (inactive) and the GI50 (CCRF-CEM) was 0.757 µM (active). For the same molecule, the GI50 (COLO 205) was 1.17 µM (inactive), the GI50 (DU-145) was 0.805 µM (active) and the GI50 (EKVX) was 1.72 µM (inactive). For the same molecule, the GI50 (HCC 2998) was 1.41 µM (inactive), the GI50 (HCT-116) was 0.415 µM (active) and the GI50 (HCT-15) was 3.56 µM. The GI50 (HL-60) was 0.659 µM (active), the GI50 (HOP-62) was 2 µM (inactive) and the GI50 (HOP-92) was 0.989 µM (active). The GI50 (HT-29) was 0.524 µM (active), the GI50 (Hs-578T) was 3.31 µM (inactive) and the GI50 (IGROV-1) was 2.78 µM (inactive). For the same molecule, the GI50 (K562) was 0.627 µM (active), the GI50 (KM12) was > 23.4 µM (inactive) and the GI50 (LOX IMVI) was 0.859 µM (active). The GI50 (M14) was 1.04 µM (active), the GI50 (MCF7) was 0.845 µM (active) and the GI50 (MDA-MB-231) was 2.1 µM (inactive). For the same molecule, the GI50 (MDA-N) was 0.778 µM (active), the GI50 (MOLT-4) was 0.557 µM (active) and the GI50 (NCI-H226) was 0.501 µM (active). The GI50 (NCI-H23) was 1.38 µM (inactive), the GI50 (NCI-H460) was 0.558 µM (active) and the GI50 (NCI-H522) was 0.908 µM (active). For the same molecule, the GI50 (NCI/ADR-RES) was 1.24 µM (inactive), the GI50 (OVCAR-3) was 1.51 µM (inactive) and the GI50 (OVCAR-5) was 0.125 µM (active). The GI50 (OVCAR-8) was 0.993 µM (active), the GI50 (PC-3) was 2.88 µM (inactive) and the GI50 (RPMI-8226) was 0.158 µM (active). For the same molecule, the GI50 (RXF 393) was 2.16 µM (inactive), the GI50 (SF-268) was 2.43 µM (inactive) and the GI50 (SF-295) was 2.02 µM (inactive). For the same molecule, the GI50 (SF-539) was 3.76 µM (inactive), the GI50 (SK-MEL-28) was 1.97 µM (inactive) and the GI50 (SK-MEL-2) was 0.424 µM (active). The GI50 (SK-MEL-5) was 0.624 µM (active), the GI50 (SK-OV-3) was 4.9 µM (inactive) and the GI50 (SN12C) was 4.75 µM (inactive). The GI50 (SNB-19) was 2.65 µM (inactive), the GI50 (SNB-75) was 4.89 µM (inactive) and the GI50 (SW-620) was 0.929 µM (active). The GI50 (T47D) was 0.708 µM (active), the GI50 (TK-10) was 0.92 µM (active) and the GI50 (U-251) was 1.54 µM (inactive). For the same molecule, the GI50 (UACC-257) was 1.59 µM (inactive), the GI50 (UACC-62) was 0.622 µM (active) and the GI50 (UO-31) was 0.759 µM (active).
